The source of these data is PubChem BioAssay (NCI).

Holding throughout (test): DTP human tumour cell line panel, 48 h
Experiment [1] concerns CAKI-1 renal.
The test system of experiment [2] is NCI-H226 lung.
The test system of experiment [3] is COLO 205 colon.
Experiment [4] concerns UACC-257 melanoma.
For experiment [5], the system named is SNB-75 CNS.
In experiment [6] the test system is RPMI-8226 leukemia.
Experiment [7] has as its system KM12 colon.
The test system of experiment [8] is ACHN renal.
Experiment [9] has as its system SR leukemia.
In experiment [10] the test system is RXF 393 renal.
The test system of experiment [11] is MOLT-4 leukemia.
Experiment [12] deals with HT29 colon.
The test system of experiment [13] is HL-60(TB) leukemia.
For experiment [14], the system named is HOP-62 NSCLC.
Experiment [15] relates to DU-145 prostate.
The test system of experiment [16] is SF-539 CNS.

Molecules are shown by their SMILES.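 These data come from cells grown in 96-well plates and exposed to compound for 48 hours at five concentrations. Definition used: TGI = concentration required for complete inhibition of growth.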

As a reminder, the TGI is the concentration giving total growth inhibition. With `Cc1ncc(CO)c(C=NCCCCCCN=Cc2c(CO)cnc(C)c2O)c1O`, the TGI in experiment [1], in experiment [2], in experiment [3], in experiment [4], in [5] and in experiment [6] was over 100 µM throughout. For the same compound, the TGI in experiment [7], in experiment [8], in experiment [9], in experiment [10], in experiment [11] and in experiment [12] was over 100 µM each time. The TGI in [13], in experiment [14], in experiment [15] and in [16] was over 100 µM throughout.
In the case of `COc1cccc(C(=O)N[C@@H]2[C@H](O)[C@@H](CO)O[C@H]2n2cnc3c(N)ncnc32)c1`, the concentration for total growth inhibition (TGI) in experiment [1], in experiment [2], in experiment [3], in experiment [4], in [5] and in experiment [6] was over 100 µM each time. Further, the TGI in [7], in experiment [8], in experiment [9], in [10], in experiment [11] and in [12] was over 100 µM in each case. The TGI in [13], in experiment [14], in [15] and in experiment [16] was over 100 µM throughout.
Turning to `Cn1c(=O)sc2cc(C(=S)N3CCN(c4ccccc4)CC3)ccc21`, the TGI in [1] is over 100 µM; in experiment [2], over 100 µM; in experiment [3], over 100 µM; in experiment [4] it was over 100 µM; in experiment [5] it was 80.6 µM; in experiment [6], over 100 µM. For the same compound, the concentration for total growth inhibition (TGI) in [7], in experiment [8], in experiment [9], in [10], in [11] and in experiment [12] was over 100 µM throughout. The TGI was over 100 µM in experiment [13], 42.8 µM in experiment [14], over 100 µM in [15] and 61.4 µM in experiment [16].
Turning to `CCOC(=O)c1ccc(Nc2cnc3ccc(C(F)(F)F)cc3n2)cc1`, the TGI in experiment [1] is 30.7 µM; in [2] it was 35.9 µM; in experiment [3], 29.3 µM; in [4], 56 µM; in experiment [5] it was 42.8 µM; in experiment [6] it was 71.1 µM. Moreover, the TGI in [7] is 25.8 µM; in experiment [8] it was 28.5 µM; in [9], 52.6 µM; in [10] it was 25.8 µM; in [11], 24.5 µM; in [12] it was 24.1 µM. The TGI in experiment [13] amounted to 37.7 µM; in [14], 46.6 µM; in experiment [15], 47.7 µM; in [16], 63.4 µM.
In the case of `OC1(c2ccc3ccccc3c2)c2c(c3ccccc3c3ccccc23)C2=NCCN21` (stereo not drawn), the TGI was over 100 µM in experiment [1]; over 100 µM in [2]; 4.17 µM in experiment [3]; over 63.5 µM in [4]; 14.7 µM in [5]; 6.87 µM in experiment [6]. For the same compound, the TGI was 6.12 µM in experiment [7]; over 100 µM in experiment [8]; over 28.4 µM in [9]; 7.68 µM in experiment [10]; over 100 µM in experiment [11]; 8.63 µM in [12]. Moreover, the TGI in experiment [13] is over 100 µM; in experiment [14], 23.3 µM; in [15], over 65.3 µM; in experiment [16] it was 13.1 µM.
`CN1CCCC(C(=O)OCC(=O)C2(O)CCC3C4CCC5=CC(=O)CCC5(C)C4C(O)CC32C)C1` (stereo not drawn): the TGI in experiment [1] is over 65.8 µM; in experiment [2], 33.9 µM; in experiment [3], 32.9 µM; in experiment [4] it was 38.2 µM; in experiment [5], 17.5 µM; in experiment [6], 27.8 µM. Moreover, the TGI in [7] is over 69.7 µM; in [8] it was 34.8 µM; in experiment [9] it was 4.47 µM; in experiment [10], 23.1 µM; in [11] it was 48.4 µM; in experiment [12], 27 µM. For the same compound, the TGI in [13] amounted to 11 µM; in [14], 31 µM; in experiment [15], 45.1 µM; in [16], 4.38 µM.
`COC(=O)C1(C)OC(C)=NC1(C(=O)OC)C(=O)OC` (stereo not drawn): the TGI in experiment [1], in experiment [2], in experiment [3], in experiment [4], in [5] and in [6] was over 100 µM each time. The TGI in experiment [7], in experiment [8], in experiment [9], in [10], in experiment [11] and in experiment [12] was over 100 µM in each case. Besides, the TGI is 14.4 µM in experiment [13], over 100 µM in [14], over 100 µM in [15] and over 100 µM in experiment [16].
With `Cc1cc(-c2ccc(C(=O)C(c3ccccc3)(c3ccccc3)c3ccccc3)[nH]2)on1`, the TGI in experiment [1] was 69.5 µM; in experiment [2], 42.5 µM; in [3], 42.2 µM; in experiment [4] it was over 100 µM; in [5], over 100 µM; in experiment [6], 48.1 µM. Moreover, the TGI in experiment [7] worked out at 47.5 µM; in experiment [9], 29.7 µM; in experiment [10] it was 9.46 µM; in [11] it was 84.9 µM; in experiment [12], 25.6 µM; in [13] it was 26.1 µM. In addition, the TGI in experiment [14] was 53.5 µM; in [15], 50.3 µM; in [16], over 100 µM.
With `CCc1n[nH]c(=S)n1/N=C\c1ccc(-c2ccccc2[N+](=O)[O-])o1`, the TGI in [1] was over 100 µM; in experiment [2] it was 54.1 µM; in [3], over 100 µM; in [4] it was over 100 µM; in [5] it was over 100 µM; in [6], 88.1 µM. Moreover, the TGI in [7] was over 100 µM; in experiment [8], over 100 µM; in experiment [9], 57.8 µM; in experiment [10] it was over 100 µM; in experiment [11], 57.8 µM; in [12], over 100 µM. In addition, the TGI in experiment [13], in experiment [14], in experiment [15] and in experiment [16] was over 100 µM in each case.
